Biological target: DAFP-1
Assay: Hummel-Dreyer size-exclusion HPLC, Klotz plot
Type: binding, Dendroides canadensis
Conditions: 0.10 M Na2SO4, 0.05% NaN3, 0.10 M NaPi, pH 7.00, ambient temperature; 1:1 stoichiometry

- Kd: 280 ± 20 nM
SMILES: NC(=O)C1=CN([C@@H]2O[C@H](COP(=O)(O)OP(=O)(O)OC[C@H]3O[C@@H](n4cnc5c(N)ncnc54)[C@H](O)[C@@H]3O)[C@@H](O)[C@H]2O)C=CC1 [NADH, β-nicotinamide adenine dinucleotide, reduced]
